Experimental data: patent EP0252299A2, “Use of 12-amino-pyridazino[4',5':3,4]pyrrolo[2,1-a]isoquinolines in the preparation of cardioprotective and neuroprotective agents” (BOEHRINGER INGELHEIM KG, priority 1986, dated 1988)

Key:
[1] = system: Tieren; experiment: Hypoxia tolerance test: survival of animals in a closed chamber; type: in vivo; details: gas mixture 96,5 % nitrogen and 3,5 % oxygen; doses up to 30 mg/kg
[2] = system: Kaninchen-Aortenstreifen; experiment: Calcium ion kinetics (45Ca2+ efflux) in rabbit aortic strips; details: for Potenzierung des stimulierten Ca²⁺-Efflux: stimulation with 80 mM K⁺
Excerpt: Bestimmung der Calcium-Ionenkinetik an Kaninchen-Aortenstreifen
Methode nach C. van Breemen, P. Aaronson, R. Loutzenheiser und K. Meisheri CHEST 78: 157s - 165s (1980) und R. Casteels & G. Droogman J. Physiol 317: 263 - 279 (1981)
Methode: Mit ⁴⁵Ca²⁺ geladene Aortenstreifen werden sequentiell äquilibriert in physiologischer Lösung. Dabei tauscht das intrazelluläre Ca²⁺ mit dem extrazellulären Ca²⁺ aus, das heißt im extrazellulären Bad ist das radioaktive ⁴⁵Ca²⁺ meßbar. Auf eine Stimulation mit 80 mM K⁺ oder 10⁻⁵ Mol/l Noradrenalin (NA) hin wird der Austausch beschleunigt. Dabei ist die im Bad ansteigende Radioaktivität ein Maß für den Ca²⁺-Efflux. So wird das Ausmaß der durch die Stimulation freigesetzten Ca²⁺ als Effluxrate bestimmt.

[3] = Scopolamine-induced impairment of short-term memory (scopolamine dementia); type: in vivo; details: Scopolamin 0,6 mg/kg i.p.
Excerpt: In Vesuchen mit Einschränkung des Kurzzeitgedächtnisses bzw.

[4] = system: myocardiale Radio-Calciumaufnahme; experiment: Cardioprotective effect: inhibition of isoprenaline-induced myocardial radio-calcium uptake in conscious rats (method of Arndts); type: in vivo, Ratten; details: s.c. or p.o., dose that inhibits by 50 % the myocardial radio-calcium uptake caused by 30 mg/kg s.c. Isoprenalin
Excerpt: Die cardioprotektive Wirkung wird auf folgende Weise bestimmt: Bekanntlich ist der mycardiale Ca⁺²-Gehalt ein Maß für die hypoxische bzw. die durch toxische Catecholamindosen hervorgerufene Herzschädigung (Higgins et al., Mol. Cell. Cardiol. 10: 427 - 438, 1984; Nakanishi et al., Am. J. Physiol. 242: 437 - 449, 1982; Fleckenstein, A., Vorträge der Erlanger Physiol. Tagung 1970, Ed. Keidel, Springer Verlag Berlin, Heidelberg, New York, 1971). Umgekehrt ist die Inhibition der hypoxischen oder Isoprenalin-bedingten myocardialen Calciumaufnahme ein Maß für die cardioprotektive Effektivität von Calciumantagonisten (Fleckenstein s.o.), von Calmodulininhibitoren (Higgins) und anderen Pharmaka, z.B. Betaadrenolytika (Arndts, Arzneimittelforschung 25: 1279 -1284, 1975).
Die cardioprotektive Wirkung wurde an wachen Ratten nach subcutaner oder peroraler Wirkstoffgabe anhand der von Arndts (s.o.) beschriebenen Methode festgestellt, und die Wirkungsstärke der Testsubstanzen als H₅₀-Wert angegeben; dieser Wert entspricht der Dosis, die die durch eine Gabe von 30 (mg/kg; s.c.) Isoprenalin bedingte, myocardiale Radio-Calciumaufnahme zu 50 % hemmt. Hier erwiesen sich die untersuchten neuen Verbindungen als ebenso wirksam wie Nifedipin.

[5] = Microiontophoresis (standard method)
Excerpt: Die Mikrointophorese wurde gemäß Standardmethode durchgeführt.

[6] = system: Isoliertes Rattenherz; experiment: Isolated Langendorff rat heart, low-flow oxygen deficiency and reperfusion: time to onset of regular contractions; set-up: species or system Ratten; details: concentration giving a significant reduction of the time to onset of regular contractions; infusion during O2 deficiency
Experimental: Die Untersuchungen am isolierten Langendorff-Herzen wurden nach O. Langendorff, Pflügers Arch. 61, 291 (1895) mit kleinen Abwandlungen ausgeführt:
Isoliertes Rattenherz, retrograde Perfusion über die Aorta. Elektrische Stimulation (300 Impulse/min. Impulsdauer Imsec.). Messung des linksventrikulär entwickelten Druckes mit flüssigkeitsgefülltem Latex-Ballon. Nach 20 min Aequilibrierung Auslösen eines Sauerstoff-Mangelzustandes mit 100-fach vermindertem Fluß durch Drosselung des Perfusionsflusses für 60 min, Rückkehr zu normalem Fluß bewirkt starken Anstieg der Grundspannung, unter Kontrollbedingungen setzt die Herztätigkeit nach 6 - 7 min unregelmäßig wieder ein, nach 15 -18 min rascher Übergang zu regelmäßigen Kontraktionen. Cardioprotektiv wirksame Verbindungen verkürzen die Zeit bis zum Einsetzen regelmäßiger Kontraktionen. Infusion der Testsubstanz (gelöst in unbegastem Perfusionsmedium) während des 0₂-Mangelzustandes herznah in das Perfusionssystem.
Die getesteten Verbindungen ergaben bei Anwendung in der unten angegebenen Konzentration eine signifikante Reduktion der Zeit bis zum Einsetzen regelmäßiger Kontraktionen.

Compound: 3,4-Dihydro-6,7-dimethoxy-12-ethylamino-pyridazino-[4ʹ,5ʹ : 3,4] pyrrolo [2,1-a] isochinolin [B]
- Hypoxie [1]: wirksam (wirksam: Im Dosenbereich bis einschließlich 30 mg/kg zeigen in der mit Substanz behandelten Tiergruppe signifikant mehr Tiere den gewünschten Effekt als in der Kontrollgruppe.)
- Potenzierung des stimulierten Ca²⁺-Efflux [2]: 27%

Compound: COC(=O)C1=C(C)NC(C)=C(C(=O)OC)C1c1ccccc1[N+](=O)[O-] [Nifedipin]
- Hypoxie [1]: unwirksam
- Scopolamin-Demenz ([3]; dose 1 mg/kg): wirksam (wirksam: Im Dosenbereich bis einschließlich 30 mg/kg zeigen in der mit Substanz behandelten Tiergruppe signifikant mehr Tiere den gewünschten Effekt als in der Kontrollgruppe.)
- Scopolamin-Demenz ([3]; dose 3-30): unwirksam

Compound: 3,4-Dihydro-6,7-dimethoxy-12-isopropylamino-pyridazino-[4ʹ,5ʹ : 3,4] pyrrolo [2,1-a] isochinolin
- Hypoxie [1]: wirksam (wirksam: Im Dosenbereich bis einschließlich 30 mg/kg zeigen in der mit Substanz behandelten Tiergruppe signifikant mehr Tiere den gewünschten Effekt als in der Kontrollgruppe.)

Compound: COc1ccc([C@@H]2Sc3ccccc3N(CCN(C)C)C(=O)[C@@H]2OC(C)=O)cc1 [Diltiazem, reference compound]
- Hypoxie [1]: unwirksam
- Scopolamin-Demenz ([3]; doses up to 30 mg/kg): unwirksam

Compound: 3,4-Dihydro-6,7-dimethoxy-12-benzylamino-pyridazino[4ʹ,5ʹ : 3,4] pyrrolo[2,1-a]isochinolin [Verbindung H]
- Scopolamin-Demenz ([3]; doses up to 30 mg/kg): wirksam (wirksam: Im Dosenbereich bis einschließlich 30 mg/kg zeigen in der mit Substanz behandelten Tiergruppe signifikant mehr Tiere den gewünschten Effekt als in der Kontrollgruppe.)

Compound: 12-Allylamino-3,4-dihydro-6,7-dimethoxy-pyridazino-[4ʹ,5ʹ : 3,4] pyrrolo[2,1-a]isochinolin
- H50-Wert [4]: 2,42

Compound: 3,4-Dihydro-6,7-dimethoxy-12-(2-methoxyethyl)-amino-pyridazino [4ʹ,5ʹ : 3,4] pyrrolo [2,1-a] isochinolin
- H50-Wert [4]: 1,92

Compound: COc1ccc(CCN(C)CCCC(C#N)(c2ccc(OC)c(OC)c2)C(C)C)cc1OC (stereo not drawn) [Verapamil]
- Scopolamin-Demenz ([3]; doses up to 30 mg/kg): unwirksam

Compound: 3,4-Dihydro-6,7-dimethoxy-12-(3-dimethylaminopropyl)-aminopyridazino [4ʹ,5ʹ : 3,4]pyrrolo[2,1-a]isochinolin
- Mikroiontophorese [5]: wirksam (wirksam: Im Dosenbereich bis einschließlich 30 mg/kg zeigen in der mit Substanz behandelten Tiergruppe signifikant mehr Tiere den gewünschten Effekt als in der Kontrollgruppe.)
- Hypoxie [1]: wirksam (wirksam: Im Dosenbereich bis einschließlich 30 mg/kg zeigen in der mit Substanz behandelten Tiergruppe signifikant mehr Tiere den gewünschten Effekt als in der Kontrollgruppe.)
- Potenzierung des stimulierten Ca²⁺-Efflux [2]: 11%
- Hemmung des stimulierten Ca²⁺-Efflux ([2]; stimulation with 10⁻⁵ Mol/l Noradrenalin (NA)): 19%
- Konzentration [6]: 13,3 µg/ml
- H50-Wert [4]: 0,46
